The source made the active and inactive calls.
Tests used:
Vero = assay: cells; format: functional; conditions: Chlorocebus sabaeus
[1] = test system: Streptococcus sp. 'group A'; assay: Streptococcus pyogenes SK(-)GAS viability under kanamycin – luminescence, BacTiterGlo, confirmation, counter-screen for streptokinase expression inhibitor project, dose response (AID 1900); format: functional, organism-based
Streptococcus = assay: GAS UMAA2166 growth inhibition – luminescence, BacTiterGlo, counter-screen for streptokinase expression inhibitor project, dose response (AID 1915); format: functional, organism-based;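 also: potency for reduction of bacterial viability or growth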
[2] = target: T1, Corticotropin-releasing factor receptor 2/Corticotropin-releasing factor-binding protein (Homo sapiens, UniProt P24387+Q13324); assay: Dose Response confirmation of uHTS hits for small molecule antagonists of the CRF-binding protein and CRF-R2 receptor complex.; format: functional; conditions: read-out: IC50_Mean
T1 sequence (Q13324 whole entry): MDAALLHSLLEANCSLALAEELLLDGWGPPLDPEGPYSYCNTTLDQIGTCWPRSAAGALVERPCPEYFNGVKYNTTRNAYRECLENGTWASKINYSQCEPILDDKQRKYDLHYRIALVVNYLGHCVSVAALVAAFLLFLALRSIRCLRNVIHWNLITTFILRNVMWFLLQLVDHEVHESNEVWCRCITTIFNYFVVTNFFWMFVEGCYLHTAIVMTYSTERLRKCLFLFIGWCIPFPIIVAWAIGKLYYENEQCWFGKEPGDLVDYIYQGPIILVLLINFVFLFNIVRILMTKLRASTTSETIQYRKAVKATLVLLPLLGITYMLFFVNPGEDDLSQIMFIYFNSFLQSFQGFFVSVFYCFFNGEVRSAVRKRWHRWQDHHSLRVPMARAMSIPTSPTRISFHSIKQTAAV
T1 sequence (P24387 whole entry): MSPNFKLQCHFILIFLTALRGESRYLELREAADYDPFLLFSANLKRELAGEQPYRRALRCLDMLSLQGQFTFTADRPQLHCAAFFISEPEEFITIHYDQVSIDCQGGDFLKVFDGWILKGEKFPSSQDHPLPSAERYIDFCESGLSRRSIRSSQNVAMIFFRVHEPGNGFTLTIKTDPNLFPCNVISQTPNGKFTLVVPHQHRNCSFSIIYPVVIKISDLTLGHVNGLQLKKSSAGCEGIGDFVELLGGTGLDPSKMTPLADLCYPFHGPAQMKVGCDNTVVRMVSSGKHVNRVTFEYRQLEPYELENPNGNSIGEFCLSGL

[3] = target: T1, Corticotropin-releasing factor receptor 2/Corticotropin-releasing factor-binding protein; assay: activators of CRF receptor 2 with binding protein – uHTS hits, confirmation (AID 602473); format: functional; conditions: read-out: EC50_Mean
Streptokinase A = target: T2, Streptokinase A (Streptococcus pyogenes serotype M1, UniProt P10520); assay: viability-normalized secreted streptokinase activity reduction – plasminogen activation absorbance, OD405, dose response (AID 1914); format: functional, Streptococcus pyogenes M1 GAS;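 also: secreted streptokinase activity via plasminogen activation per viability signal from cell pellet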
T2 sequence (P10520 whole entry): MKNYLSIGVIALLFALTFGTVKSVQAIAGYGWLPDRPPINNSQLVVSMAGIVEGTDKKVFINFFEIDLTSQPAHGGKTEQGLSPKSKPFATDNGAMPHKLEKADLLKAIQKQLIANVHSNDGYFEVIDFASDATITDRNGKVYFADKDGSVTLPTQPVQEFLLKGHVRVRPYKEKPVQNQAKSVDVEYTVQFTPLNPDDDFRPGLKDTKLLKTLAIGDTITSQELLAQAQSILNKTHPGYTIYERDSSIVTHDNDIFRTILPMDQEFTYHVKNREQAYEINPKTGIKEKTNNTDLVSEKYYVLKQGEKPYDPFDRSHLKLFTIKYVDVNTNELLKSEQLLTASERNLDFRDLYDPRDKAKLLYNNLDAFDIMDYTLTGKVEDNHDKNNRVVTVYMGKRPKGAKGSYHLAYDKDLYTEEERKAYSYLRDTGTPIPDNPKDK

Cytochrome P450 2C19 = Cytochrome P450 2C19 (Homo sapiens, UniProt P33261); assay: Cytochrome panel assay with activity outcomes. Panel member name: p450-cyp2c19 Compounds with AC50 equal or less than 10 uM are considered active; format: functional; conditions: read-out: AC50
Chain of Cytochrome P450 2C19 (P33261 whole entry): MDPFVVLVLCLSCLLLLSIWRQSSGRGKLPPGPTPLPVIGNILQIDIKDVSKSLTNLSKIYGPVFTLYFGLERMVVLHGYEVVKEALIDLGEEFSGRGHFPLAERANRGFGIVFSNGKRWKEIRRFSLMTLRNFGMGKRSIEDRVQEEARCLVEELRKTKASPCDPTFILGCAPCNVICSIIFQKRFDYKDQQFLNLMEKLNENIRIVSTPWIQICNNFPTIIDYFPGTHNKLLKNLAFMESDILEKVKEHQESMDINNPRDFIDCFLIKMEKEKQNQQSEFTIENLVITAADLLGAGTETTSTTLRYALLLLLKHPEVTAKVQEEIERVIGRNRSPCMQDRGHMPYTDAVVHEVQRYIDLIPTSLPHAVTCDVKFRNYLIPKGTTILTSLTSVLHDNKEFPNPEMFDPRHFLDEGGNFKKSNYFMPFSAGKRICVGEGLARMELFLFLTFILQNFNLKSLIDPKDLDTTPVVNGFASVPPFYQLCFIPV

Cytochrome P450 2C9 = Cytochrome P450 2C9 (Homo sapiens, UniProt P11712)
Chain of Cytochrome P450 2C9 (P11712 whole entry): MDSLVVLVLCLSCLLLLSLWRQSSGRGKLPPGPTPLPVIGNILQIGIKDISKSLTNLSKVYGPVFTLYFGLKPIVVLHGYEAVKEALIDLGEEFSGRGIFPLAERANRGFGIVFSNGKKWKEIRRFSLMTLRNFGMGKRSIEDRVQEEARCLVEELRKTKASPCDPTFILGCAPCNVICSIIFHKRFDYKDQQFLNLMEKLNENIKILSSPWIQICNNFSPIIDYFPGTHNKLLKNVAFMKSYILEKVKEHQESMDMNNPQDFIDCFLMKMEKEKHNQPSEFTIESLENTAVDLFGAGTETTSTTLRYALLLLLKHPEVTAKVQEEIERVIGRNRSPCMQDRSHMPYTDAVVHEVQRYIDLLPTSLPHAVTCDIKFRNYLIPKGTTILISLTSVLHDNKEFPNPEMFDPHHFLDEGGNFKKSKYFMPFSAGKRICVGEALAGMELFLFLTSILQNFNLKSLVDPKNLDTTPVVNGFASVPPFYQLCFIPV

[4] = viability of uninfected HEp-2 cells – cell-based, HTS, cytotoxicity control for RSV inhibitor project, dose response (AID 2410); format: functional; conditions: human respiratory syncytial virus
[5] = viability of PTEN-deleted HCT116 cells – cell-based, HCT116 PTEN knockout, dose response (AID 1047); format: functional;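 also: HCT116 colon tumor cells with PTEN knocked out; cells exposed to compound for 60 hours before readout; potency for loss of cell viability measured by luminescence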
[6] = viability of HCT116 lacking mutant beta-catenin – cell-based, human colon tumor, dose response (AID 1045); format: functional;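 also: HCT116 colon tumor cells with beta catenin knocked out; cells exposed to compound for 60 hours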
Cytochrome P450 1A2 = target: T3, Cytochrome P450 1A2 (Homo sapiens, UniProt P05177);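 also: PubChem cytochrome P450 panel assay, CYP1A2 panel member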
T3 sequence (P05177 whole entry): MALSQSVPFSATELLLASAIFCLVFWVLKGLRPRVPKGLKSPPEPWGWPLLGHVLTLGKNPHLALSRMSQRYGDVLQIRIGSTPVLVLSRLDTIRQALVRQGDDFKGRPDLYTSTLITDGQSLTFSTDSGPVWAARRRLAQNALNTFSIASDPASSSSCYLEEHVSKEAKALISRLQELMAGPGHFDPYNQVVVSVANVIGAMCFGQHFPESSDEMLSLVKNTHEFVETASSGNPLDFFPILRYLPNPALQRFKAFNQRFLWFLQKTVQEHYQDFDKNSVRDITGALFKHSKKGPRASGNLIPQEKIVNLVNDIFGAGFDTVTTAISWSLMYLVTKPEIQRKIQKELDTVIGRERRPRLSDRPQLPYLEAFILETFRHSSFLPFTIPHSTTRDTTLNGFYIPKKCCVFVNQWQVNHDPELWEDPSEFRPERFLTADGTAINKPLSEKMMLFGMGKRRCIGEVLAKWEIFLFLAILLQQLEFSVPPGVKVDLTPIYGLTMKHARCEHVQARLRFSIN

[7] = target: T4, Polyadenylate-binding protein 1 (Homo sapiens, UniProt P11940); assay: MLLE domain peptide-binding blockers, IC50 – biochemical, fluorescence polarization, FITC-PAM2 peptide, dose response (AID 602259); format: functional; conditions: read-out: IC50_Mean
T4 sequence (P11940 whole entry, the tested form may be a part): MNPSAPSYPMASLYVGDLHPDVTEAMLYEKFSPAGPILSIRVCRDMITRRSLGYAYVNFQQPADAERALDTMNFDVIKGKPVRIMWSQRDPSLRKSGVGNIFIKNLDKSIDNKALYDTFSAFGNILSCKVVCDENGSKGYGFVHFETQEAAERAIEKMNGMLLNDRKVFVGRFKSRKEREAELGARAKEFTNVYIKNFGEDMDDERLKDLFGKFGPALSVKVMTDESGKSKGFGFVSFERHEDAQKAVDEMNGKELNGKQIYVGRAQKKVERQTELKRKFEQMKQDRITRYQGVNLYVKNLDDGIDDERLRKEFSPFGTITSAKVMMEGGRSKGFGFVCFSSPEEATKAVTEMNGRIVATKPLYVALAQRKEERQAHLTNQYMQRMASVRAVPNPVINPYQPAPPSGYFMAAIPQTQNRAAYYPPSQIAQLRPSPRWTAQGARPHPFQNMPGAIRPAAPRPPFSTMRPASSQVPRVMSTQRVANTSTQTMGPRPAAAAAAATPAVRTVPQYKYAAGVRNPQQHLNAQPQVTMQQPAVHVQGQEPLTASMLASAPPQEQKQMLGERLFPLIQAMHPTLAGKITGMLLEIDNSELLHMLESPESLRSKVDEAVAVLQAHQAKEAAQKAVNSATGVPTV

[8] = target: T4, Polyadenylate-binding protein 1; assay: MLLE binding blockers, Cy5 peptide tracer – biochemical, fluorescence polarization, Cy5-PAM2 peptide, secondary, miRNA deadenylation inhibitor project, dose response (AID 602260); format: functional; conditions: read-out: IC50_Mean
[9] = target: T5, Heat shock factor protein 1 (Mus musculus, UniProt P38532); assay: enhancement of HSF1-driven luciferase signal – cell-based, NIH3T3, luminescence, dose retest, confirmation (AID 435004); format: functional;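 also: stress induced by proteasome inhibitor MG132 added 30 min after compound; luciferase reporter driven by HSF1 response element in NIH3T3 cells; actives raise luminescence as potentiators of the MG132 stress response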
T5 sequence (P38532 whole entry): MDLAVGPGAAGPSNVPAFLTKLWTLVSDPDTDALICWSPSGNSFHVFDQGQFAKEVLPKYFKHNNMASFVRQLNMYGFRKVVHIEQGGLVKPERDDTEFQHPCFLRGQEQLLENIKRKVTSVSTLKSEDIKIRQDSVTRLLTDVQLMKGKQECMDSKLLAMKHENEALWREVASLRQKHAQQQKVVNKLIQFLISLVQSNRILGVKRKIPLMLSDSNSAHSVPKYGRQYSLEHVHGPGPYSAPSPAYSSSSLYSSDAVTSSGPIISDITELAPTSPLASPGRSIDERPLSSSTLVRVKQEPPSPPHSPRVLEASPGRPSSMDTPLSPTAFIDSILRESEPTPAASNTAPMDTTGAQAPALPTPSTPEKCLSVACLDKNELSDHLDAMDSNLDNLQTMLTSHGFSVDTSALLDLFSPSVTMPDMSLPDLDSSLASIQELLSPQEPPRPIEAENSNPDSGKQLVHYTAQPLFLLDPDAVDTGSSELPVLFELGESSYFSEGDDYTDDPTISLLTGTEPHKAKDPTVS

[10] = Luminescence Cell-Based Dose Response HTS to Identify Inhibitors of 5'UTR Stem-Loop Driven Prion Protein mRNA Translation in H4 Neuroglioblastoma Cells. [Related pubchem assays: 1827 (Project Summary), 1813 (Primary HTS)]; format: functional
[11] = Luminescence Cell-Based Dose Retest to Confirm Inhibitors of Cancer Stem Cells. [Related pubchem assays (depositor defined):AID2717, AID2721]; format: functional; conditions: Homo sapiens
[12] = alpha-synuclein stem-loop luciferase translation blockers – H4 neuroglioma cells, luminescence, confirmation (AID 1988); format: functional, cell-based
[13] = luciferase reporter signal suppression in cells – H4 neuroglioma cells, luminescence, dose response (AID 1990); format: functional, cell-based

Compound: O=C(NCC(c1ccco1)N1CCCCC1)c1ccc(COc2ccc(Cl)cc2)cc1 (configuration not stated)
- CC50 (Vero): > 25 µM (active)

Compound: O=C(C[n+]1nc(CNc2ccc(Cl)cc2)n2c1CCCCC2)c1ccc(Br)cc1
- EC50 [1]: 5.64 µM (active)
- EC50 (Streptococcus): 84.2 µM (active)
- IC50 [2]: > 47.1 µM (inactive)
- EC50 [3]: > 53 µM (inactive)
- EC50 (Streptokinase A): 12.5 µM (active)

Compound: CSc1nc(C2CC2)cc(-c2cccs2)c1C#N
- AC50 (Cytochrome P450 2C19): 1.26 µM (inconclusive)
- AC50 (Cytochrome P450 2C9): inconclusive
- CC50 [4]: 11.8 µM (active)

Compound: CC(C)CC(=O)/N=C1\SC2CS(=O)(=O)CC2N1Cc1ccccc1 (configuration not stated)
- EC50 [5]: 41.1 µM (active)
- EC50 [6]: 75.3 µM (active)

Compound: Oc1ccc(Cc2nccc3cc(O)c(O)cc23)cc1O [PAPAVEROLINE]
- AC50 (Cytochrome P450 1A2): 5.01 µM (inconclusive)
- AC50 (Cytochrome P450 2C9): inconclusive

Compound: CC(C)(C)n1nc2c(c1NC(=O)c1cc3ccccc3o1)CSC2
- IC50 [7]: > 66 µM (inactive)
- IC50 [8]: > 66 µM (inactive)

Compound: Cn1c(Cc2cccc3ccccc23)nnc1SCC(=O)N1CCN(c2ccccc2)CC1
- AC50 (Cytochrome P450 2C9): inconclusive

Compound: O=C(NC(=S)Nc1ccc2c(c1)OCCO2)c1ccccc1
- IC50 [7]: > 66 µM (inactive)
- IC50 [8]: > 66 µM (inactive)

Compound: Nc1nc(N)c(/C=N/c2ccc(Br)cc2)c(Nc2ccc(Br)cc2)n1
- EC50 [1]: 1.11 µM (active)
- EC50 (Streptococcus): 3.09 µM (active)
- CC50 (Vero): > 25 µM (active)
- EC50 [9]: 71.2 µM (active)
- EC50 (Streptokinase A): > 150 µM (not active)

Compound: O=[N+]([O-])c1cccc(C(=S)N2CCN(c3ccccc3F)CC2)c1
- IC50 [7]: > 66 µM (inactive)
- IC50 [8]: > 66 µM (inactive)

Compound: COc1ccc(O)c(C(=O)CC(=O)c2ccccc2C)c1
- EC50 [1]: 6.85 µM (active)
- EC50 (Streptococcus): 49.1 µM (active)
- CC50 (Vero): 20.4 µM (active)
- EC50 (Streptokinase A): > 150 µM (not active)

Compound: Cc1ccccc1C(=O)Nc1ccc2c(C#N)c3nc4ccccc4nc3n2c1
- EC50 [5]: 6.62 µM (active)
- EC50 [6]: 5.34 µM (active)

Compound: CCN(CC)c1ccc(C(=O)OCc2cc(=O)oc3cc(O)ccc23)cc1
- EC50 [10]: > 120 µM (not active)
- EC50 [1]: 16.1 µM (active)
- AC50 (Cytochrome P450 1A2): 2.24 µM (inconclusive)
- EC50 (Streptococcus): > 150 µM (not active)
- AC50 (Cytochrome P450 2C9): inconclusive
- AC50 [11]: 4.72 µM (active)
- EC50 [5]: 7.3 µM (active)
- EC50 [12]: 10.5 µM (active)
- EC50 (Streptokinase A): 128 µM (active)
- EC50 [6]: 5.62 µM (active)
- EC50 [13]: 9 µM (active)
